One assay has as its target T1, human AT1 receptor (Homo sapiens, UniProt P30556).
T1 construct: expressed in transfected cells; membrane fraction
T1 sequence (P30556 1-359): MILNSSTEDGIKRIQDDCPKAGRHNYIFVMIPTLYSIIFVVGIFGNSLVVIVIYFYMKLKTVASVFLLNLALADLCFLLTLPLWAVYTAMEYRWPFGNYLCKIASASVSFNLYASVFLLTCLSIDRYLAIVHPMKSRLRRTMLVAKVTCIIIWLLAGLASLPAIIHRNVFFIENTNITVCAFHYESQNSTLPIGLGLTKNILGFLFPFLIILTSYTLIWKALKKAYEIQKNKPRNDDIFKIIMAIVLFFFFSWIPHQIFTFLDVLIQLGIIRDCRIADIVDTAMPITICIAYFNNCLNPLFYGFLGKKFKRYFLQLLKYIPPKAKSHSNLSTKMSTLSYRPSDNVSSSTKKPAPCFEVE
The assay can be described thus: AT1 receptor antagonistic activity: [125I]-angiotensin II binding assay on human AT1 receptor-expressing CHO-K1 cellular membrane fraction. To be noted: 22.5 pM [125I]-angiotensin II, 1 hr room temperature. The gist of the method:
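Competition binding used radiolabelled angiotensin II on stably transfected CHO-K1 membrane fractions in Tris pH 7.4/MgCl2 buffer, optionally containing 0.3 mg/mL fatty acid-free BSA, 1 hr at room temperature. Filtration onto GF/C separated bound tracer, and nonspecific binding was measured with candesartan.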

The target of a further assay is T2, human PPARγ (Homo sapiens, UniProt P37231).
T2 construct: expressed in transfected cells
T2 sequence (P37231 1-477 isoform P37231-2): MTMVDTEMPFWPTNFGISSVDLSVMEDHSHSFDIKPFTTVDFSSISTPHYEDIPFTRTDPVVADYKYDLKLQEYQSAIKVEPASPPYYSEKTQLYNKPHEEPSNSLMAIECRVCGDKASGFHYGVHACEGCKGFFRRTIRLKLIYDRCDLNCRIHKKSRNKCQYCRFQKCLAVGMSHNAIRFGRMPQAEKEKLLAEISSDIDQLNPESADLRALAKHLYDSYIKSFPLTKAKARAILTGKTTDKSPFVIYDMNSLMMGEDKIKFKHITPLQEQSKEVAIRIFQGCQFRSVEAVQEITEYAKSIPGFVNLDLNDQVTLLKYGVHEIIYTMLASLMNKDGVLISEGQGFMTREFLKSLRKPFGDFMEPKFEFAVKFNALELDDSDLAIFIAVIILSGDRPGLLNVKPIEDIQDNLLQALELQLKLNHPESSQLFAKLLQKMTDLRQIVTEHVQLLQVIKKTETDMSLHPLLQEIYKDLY
T2 sequence (P19793 1-462 partner): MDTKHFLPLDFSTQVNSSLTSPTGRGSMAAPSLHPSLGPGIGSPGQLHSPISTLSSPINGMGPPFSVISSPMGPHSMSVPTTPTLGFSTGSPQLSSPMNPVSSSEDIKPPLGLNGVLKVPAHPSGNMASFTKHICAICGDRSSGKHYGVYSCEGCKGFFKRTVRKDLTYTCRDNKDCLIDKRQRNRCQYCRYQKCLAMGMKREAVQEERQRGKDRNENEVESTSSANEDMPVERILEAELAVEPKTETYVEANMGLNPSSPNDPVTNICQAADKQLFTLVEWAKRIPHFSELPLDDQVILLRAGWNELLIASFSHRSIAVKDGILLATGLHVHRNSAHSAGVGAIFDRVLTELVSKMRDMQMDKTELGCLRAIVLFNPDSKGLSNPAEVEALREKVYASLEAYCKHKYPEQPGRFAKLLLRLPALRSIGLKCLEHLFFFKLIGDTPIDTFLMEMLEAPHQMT
The experiment in a line: PPARγ agonistic activity: luciferase reporter assay in PPARγ:RXRα:4ERPP/CHO-K1 cells. It is filed as cell-based. The note with it: CHO-K1, test compound 10^−6 M; luciferase activity of control compound X (1 μM) = 100%, non-administration group = 0%. Put shortly: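 Activity is expressed relative to untreated cells (0%) and 1 μM reference compound X (100%), from luciferase luminescence. Reporter line: PPARγ:RXRα:4ERPP/CHO-K1, exposed to compound for one day at 37 °C in F12 medium containing 0.1% fatty-acid-free BSA.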

Compound `CCCCc1c(Cc2ccc(-c3ccccc3-c3noc(=O)[nH]3)cc2)c(=O)n([C@H]2C[C@@H](C)O[C@@H](C)C2)c2ncnn12` [Example 139, 7-butyl-4-[(2R,4r,6S)-2,6-dimethyltetrahydro-2H-pyran-4-yl]-6-{[2′-(5-oxo-4,5-dihydro-1,2,4-oxadiazol-3-yl)biphenyl-4-yl]methyl}[1,2,4]triazolo[1,5-a]pyrimidin-5(4H)-one] showed a half-inhibitory concentration (IC50) on human AT1 receptor of 1.7 nM. On human PPARγ, this compound showed an activation at 1 µM of 6%.

As for `CCCc1c(Cc2ccc(-c3ccccc3-c3noc(=O)[nH]3)cc2)c(=O)n(C2CCC(C)OC2)c2nc(C)nn12` (centres unmarked) [Example 144, 2-methyl-4-(6-methyltetrahydro-2H-pyran-3-yl)-6-{[2′-(5-oxo-4,5-dihydro-1,2,4-oxadiazol-3-yl)biphenyl-4-yl]methyl}-7-propyl[1,2,4]triazolo[1,5-a]pyrimidin-5(4H)-one], the 50% inhibitory concentration (IC50) on human AT1 receptor stood at 1.4 nM. Besides, the activation at 1 µM on human PPARγ is 20%.

Take `CCCCc1c(Cc2ccc(-c3ccccc3-c3noc(=O)[nH]3)cc2)c(=O)n(C2CCC(O)CC2)c2ncnn12` (centres unmarked) [Example 147, 7-butyl-4-(4-hydroxycyclohexyl)-6-{[2′-(5-oxo-4,5-dihydro-1,2,4-oxadiazol-3-yl)biphenyl-4-yl]methyl}[1,2,4]triazolo[1,5-a]pyrimidin-5(4H)-one]: the half-inhibitory concentration (IC50) on human AT1 receptor stood at 1 nM. On human PPARγ, this compound came in with an activation at 1 µM of 26%.

The compound `CCCCc1c(Cc2ccc(-c3ccccc3-c3noc(=O)[nH]3)cc2)c(=O)n(C2CCC(OC)CC2)c2ncnn12` (centres unmarked) [Example 148, 7-butyl-4-(4-methoxycyclohexyl)-6-{[2′-(5-oxo-4,5-dihydro-1,2,4-oxadiazol-3-yl)biphenyl-4-yl]methyl}[1,2,4]triazolo[1,5-a]pyrimidin-5(4H)-one] had a half-maximal inhibitory concentration (IC50) on human AT1 receptor of 1.9 nM. Besides, the activation at 1 µM on human PPARγ turned out to be 52%.

In turn, `CCCc1c(Cc2ccc(-c3ccccc3-c3noc(=O)[nH]3)cc2)c(=O)n([C@H]2CC[C@]3(CCCO3)CC2)c2ncnn12` [Example 150, 4-[(5S,8S)-1-oxaspiro[4.5]dec-8-yl]-6-{[2′-(5-oxo-4,5-dihydro-1,2,4-oxadiazol-3-yl)biphenyl-4-yl]methyl}-7-propyl[1,2,4]triazolo[1,5-a]pyrimidin-5(4H)-one] displayed a half-maximal inhibitory concentration (IC50) at human AT1 receptor of 1.4 nM. For the same compound, the activation at 1 µM on human PPARγ is 58%.

Turning to `CCCc1c(Cc2ccc(-c3ccccc3-c3noc(=O)[nH]3)cc2)c(=O)n([C@H]2CC[C@@]3(CCCO3)CC2)c2ncnn12` [Example 151, 4-[(5R,8R)-1-oxaspiro[4.5]dec-8-yl]-6-{[2′-(5-oxo-4,5-dihydro-1,2,4-oxadiazol-3-yl)biphenyl-4-yl]methyl}-7-propyl[1,2,4]triazolo[1,5-a]pyrimidin-5(4H)-one], the IC50 at human AT1 receptor came to 1.6 nM. Besides, the activation at 1 µM at human PPARγ stood at 35%.

With `CCCc1c(Cc2ccc(-c3ccccc3-c3noc(=O)[nH]3)cc2)c(=O)n(C2CCC(OC)CC2)c2ncnn12` (centres unmarked) [Example 152, 4-(4-methoxycyclohexyl)-6-{[2′-(5-oxo-4,5-dihydro-1,2,4-oxadiazol-3-yl)biphenyl-4-yl]methyl}-7-propyl[1,2,4]triazolo[1,5-a]pyrimidin-5(4H)-one], on human AT1 receptor, the IC50 was 2.4 nM. The compound further gave an activation at 1 µM on human PPARγ of 39%.

The compound `C=CCOC1CCC(n2c(=O)c(Cc3ccc(-c4ccccc4-c4noc(=O)[nH]4)cc3)c(CCC)n3ncnc23)CC1` (centres unmarked) [Example 153, 6-{[2′-(5-oxo-4,5-dihydro-1,2,4-oxadiazol-3-yl)biphenyl-4-yl]methyl}-4-[4-(prop-2-en-1-yloxy)cyclohexyl]-7-propyl[1,2,4]triazolo[1,5-a]pyrimidin-5(4H)-one] came in with an IC50 at human AT1 receptor of 1.9 nM. This compound also displayed an activation at 1 µM at human PPARγ of 53%.

`CCCc1c(Cc2ccc(-c3ccccc3-c3noc(=O)[nH]3)cc2)c(=O)n(C2CCC(OCCOC)CC2)c2ncnn12` (centres unmarked) [Example 154, 4-[4-(2-methoxyethoxy)cyclohexyl]-6-{[2′-(5-oxo-4,5-dihydro-1,2,4-oxadiazol-3-yl)biphenyl-4-yl]methyl}-7-propyl[1,2,4]triazolo[1,5-a]pyrimidin-5(4H)-one] had an IC50 on human AT1 receptor of 2.1 nM. The same compound had an activation at 1 µM at human PPARγ of 33%.

Turning to `CCCc1c(Cc2ccc(-c3ccccc3-c3noc(=O)[nH]3)c(C)c2)c(=O)n([C@H]2CC[C@H](OCC(C)(C)O)CC2)c2nc(C)nn12` [Example 155, 4-[trans-4-(2-hydroxy-2-methylpropoxy)cyclohexyl]-2-methyl-6-{[2-methyl-2′-(5-oxo-4,5-dihydro-1,2,4-oxadiazol-3-yl)biphenyl-4-yl]methyl}-7-propyl[1,2,4]triazolo[1,5-a]pyrimidin-5(4H)-one], the IC50 on human AT1 receptor is 1.6 nM. On human PPARγ, this compound returned an activation at 1 µM of 18%.

With `CCCc1c(Cc2ccc(-c3ccccc3-c3noc(=O)[nH]3)cc2)c(=O)n([C@H]2CC[C@@H](OCCO)CC2)c2ncnn12` [Example 163, 4-[cis-4-(2-hydroxyethoxy)cyclohexyl]-6-{[2′-(5-oxo-4,5-dihydro-1,2,4-oxadiazol-3-yl)biphenyl-4-yl]methyl}-7-propyl[1,2,4]triazolo[1,5-a]pyrimidin-5(4H)-one], the IC50 on human AT1 receptor amounted to 1.6 nM. Moreover, on human PPARγ, the activation at 1 µM turned out to be 40%.

`CCCc1c(Cc2ccc(-c3ccccc3-c3noc(=O)[nH]3)cc2)c(=O)n([C@H]2CC[C@H](OCCO)CC2)c2ncnn12` [Example 164, 4-[trans-4-(2-hydroxyethoxy)cyclohexyl]-6-{[2′-(5-oxo-4,5-dihydro-1,2,4-oxadiazol-3-yl)biphenyl-4-yl]methyl}-7-propyl[1,2,4]triazolo[1,5-a]pyrimidin-5(4H)-one] gave an IC50 at human AT1 receptor of 1 nM. This compound showed an activation at 1 µM at human PPARγ of 18%.

Regarding `CCCc1c(Cc2ccc(-c3ccccc3-c3noc(=O)[nH]3)cc2F)c(=O)n([C@H]2CC[C@@H](O)CC2)c2ncnn12` [Example 166, 6-{[3-fluoro-2′-(5-oxo-4,5-dihydro-1,2,4-oxadiazol-3-yl)biphenyl-4-yl]methyl}-4-(cis-4-hydroxycyclohexyl)-7-propyl[1,2,4]triazolo[1,5-a]pyrimidin-5(4H)-one], on human AT1 receptor, the 50% inhibitory concentration (IC50) turned out to be 1.3 nM. Also, the activation at 1 µM at human PPARγ is 22%.

`CCCc1c(Cc2ccc(-c3ccccc3-c3noc(=O)[nH]3)cc2F)c(=O)n([C@H]2CC[C@H](O)CC2)c2ncnn12` [Example 167, 6-{[3-fluoro-2′-(5-oxo-4,5-dihydro-1,2,4-oxadiazol-3-yl)biphenyl-4-yl]methyl}-4-(trans-4-hydroxycyclohexyl)-7-propyl[1,2,4]triazolo[1,5-a]pyrimidin-5(4H)-one] yielded an IC50 on human AT1 receptor of 0.8 nM. On human PPARγ, this compound came in with an activation at 1 µM of 43%.

In turn, `CCCc1c(Cc2ccc(-c3ccccc3-c3noc(=O)[nH]3)cc2)c(=O)n([C@H]2CC[C@H](C(=O)OCC)CC2)c2ncnn12` [Example 168, ethyl trans-4-[5-oxo-6-{[2′-(5-oxo-4,5-dihydro-1,2,4-oxadiazol-3-yl)biphenyl-4-yl]methyl}-7-propyl[1,2,4]triazolo[1,5-a]pyrimidin-4(5H)-yl]cyclohexanecarboxylate] registered an IC50 on human AT1 receptor of 1.4 nM. Also, the activation at 1 µM at human PPARγ was determined as 54%.

For `CCCc1c(Cc2ccc(-c3ccccc3-c3noc(=O)[nH]3)cc2)c(=O)n([C@H]2CC[C@H](c3nc(C)no3)CC2)c2ncnn12` [Example 169, 4-[trans-4-(3-methyl-1,2,4-oxadiazol-5-yl)cyclohexyl]-6-{[2′-(5-oxo-4,5-dihydro-1,2,4-oxadiazol-3-yl)biphenyl-4-yl]methyl}-7-propyl[1,2,4]triazolo[1,5-a]pyrimidin-5(4H)-one], the IC50 at human AT1 receptor amounted to 1.4 nM. This compound also registered an activation at 1 µM on human PPARγ of 54%.

These data come from patent publication US8283353B2, “Fused ring compound and use thereof” (Takeda Pharmaceutical Company Limited, priority 2009, dated 2012).
